In US20080254983A1, “Herbicide Composition” (NUFARM AUSTRALIA LIMITED, priority 2005, published 2008):

System: Annual Ryegrass (LOLRI)
Assay: Field trials throughout Australia, annual ryegrass (LOLRI) counts
Format: in vivo
Conditions: for % control: from mean vs untreated control; for Mean Plants/m2: mean of the seven trials
Experimental: A series of field trials were conducted throughout Australia to assess the performance of Example 5 composition (400 g/L trifluralin+117 g/L cinmethylin+UAN compatibiliser) versus the performance of either trifluralin or cinmethylin applied as standalone treatments.
All trials were sown under a knifepoint/reduced tillage seeding systems with trial design and management reflecting common district and grower practice. Rates of herbicide application were designed to allow comparison of the co-mixture and solvency package against the relative merits of either active ingredient applied alone in their currently available commercial formulation package (see table below).
Products were applied prior to sowing and were applied in water with industry accepted application equipment and spray nozzles.

Q: With `CCCN(CCC)c1c([N+](=O)[O-])cc(C(F)(F)F)cc1[N+](=O)[O-]` [Trifluralin, trifluralin] as the compound, how does the “LOLRI Plants/m2” value (720 gai/ha, Vic Lentils 81-DAT) read?
A: The value was 26 Plants/m2.

Q: And the “LOLRI Plants/m2” value (720 gai/ha, Vic Lentils H02 51-DAT)?
A: The value was 21 Plants/m2.

Q: What about the “LOLRI Plants/m2” value (720 gai/ha, Vic Wheat 49-DAT) of the same compound?
A: Its value is 105 Plants/m2.

Q: What about the “LOLRI Plants/m2” value (720 gai/ha, Vic Wheat H03 79-DAT) of the same compound?
A: The value was 168 Plants/m2.

Q: What about the “LOLRI Plants/m2” value (720 gai/ha, WA Canola W06-197 27-DAT) of the same compound?
A: The value was 264 Plants/m2.

Q: What about the “LOLRI Plants/m2” value (720 gai/ha, WA Lupins W06-200 19-DAT) of the same compound?
A: The value was 224 Plants/m2.

Q: And the “LOLRI Plants/m2” value (720 gai/ha, WA Wheat W06-196 27-DAT)?
A: The value was 191 Plants/m2.

Q: And the “% control” value (720 gai/ha)?
A: Its value is 63%.

Q: And the “Mean Plants/m2” value (720 gai/ha)?
A: Its value is 143 Plants/m2.

Q: And the “LOLRI Plants/m2” value (960 gai/ha, Vic Lentils 81-DAT)?
A: The value was 22 Plants/m2.

Q: And the “LOLRI Plants/m2” value (960 gai/ha, Vic Lentils H02 51-DAT)?
A: Its value is 19 Plants/m2.

Q: And the “LOLRI Plants/m2” value (960 gai/ha, Vic Wheat 49-DAT)?
A: The value was 10 Plants/m2.

Q: What about the “LOLRI Plants/m2” value (960 gai/ha, Vic Wheat H03 79-DAT) of the same compound?
A: The value was 22 Plants/m2.

Q: What about the “LOLRI Plants/m2” value (960 gai/ha, WA Canola W06-197 27-DAT) of the same compound?
A: The value was 208 Plants/m2.

Q: And the “LOLRI Plants/m2” value (960 gai/ha, WA Lupins W06-200 19-DAT)?
A: Its value is 169 Plants/m2.

Q: What about the “LOLRI Plants/m2” value (960 gai/ha, WA Wheat W06-196 27-DAT) of the same compound?
A: Its value is 207 Plants/m2.

Q: What about the “% control” value (960 gai/ha) of the same compound?
A: The value was 76%.

Q: And the “Mean Plants/m2” value (960 gai/ha)?
A: The value was 94 Plants/m2.

Q: And the “LOLRI Plants/m2” value (1440 gai/ha, Vic Lentils 81-DAT)?
A: Its value is 23 Plants/m2.

Q: What about the “LOLRI Plants/m2” value (1440 gai/ha, Vic Lentils H02 51-DAT) of the same compound?
A: The value was 14 Plants/m2.

Q: And the “LOLRI Plants/m2” value (1440 gai/ha, Vic Wheat 49-DAT)?
A: The value was 29 Plants/m2.

Q: And the “LOLRI Plants/m2” value (1440 gai/ha, Vic Wheat H03 79-DAT)?
A: The value was 33 Plants/m2.

Q: What about the “LOLRI Plants/m2” value (1440 gai/ha, WA Canola W06-197 27-DAT) of the same compound?
A: The value was 156 Plants/m2.

Q: And the “LOLRI Plants/m2” value (1440 gai/ha, WA Lupins W06-200 19-DAT)?
A: The value was 184 Plants/m2.

Q: And the “LOLRI Plants/m2” value (1440 gai/ha, WA Wheat W06-196 27-DAT)?
A: The value was 135 Plants/m2.

Q: What about the “% control” value (1440 gai/ha) of the same compound?
A: Its value is 79%.

Q: And the “Mean Plants/m2” value (1440 gai/ha)?
A: The value was 82 Plants/m2.

Q: `Cc1ccccc1CO[C@@H]1C[C@@]2(C(C)C)CC[C@]1(C)O2` (racemic) [Cinmethylin] was tested. Which “LOLRI Plants/m2” value (100 gai/ha, Vic Lentils 81-DAT) did it give?
A: The value was 18 Plants/m2.

Q: And the “LOLRI Plants/m2” value (100 gai/ha, Vic Lentils H02 51-DAT)?
A: Its value is 15 Plants/m2.

Q: And the “LOLRI Plants/m2” value (100 gai/ha, Vic Wheat 49-DAT)?
A: Its value is 69 Plants/m2.

Q: What about the “LOLRI Plants/m2” value (100 gai/ha, Vic Wheat H03 79-DAT) of the same compound?
A: The value was 136 Plants/m2.

Q: What about the “LOLRI Plants/m2” value (100 gai/ha, WA Canola W06-197 27-DAT) of the same compound?
A: Its value is 419 Plants/m2.

Q: And the “LOLRI Plants/m2” value (100 gai/ha, WA Lupins W06-200 19-DAT)?
A: Its value is 503 Plants/m2.

Q: What about the “LOLRI Plants/m2” value (100 gai/ha, WA Wheat W06-196 27-DAT) of the same compound?
A: Its value is 300 Plants/m2.

Q: What about the “% control” value (100 gai/ha) of the same compound?
A: The value was 46%.

Q: What about the “Mean Plants/m2” value (100 gai/ha) of the same compound?
A: Its value is 208 Plants/m2.

Q: And the “LOLRI Plants/m2” value (200 gai/ha, Vic Lentils 81-DAT)?
A: The value was 10 Plants/m2.

Q: What about the “LOLRI Plants/m2” value (200 gai/ha, Vic Lentils H02 51-DAT) of the same compound?
A: Its value is 8 Plants/m2.

Q: And the “LOLRI Plants/m2” value (200 gai/ha, Vic Wheat 49-DAT)?
A: The value was 67 Plants/m2.

Q: What about the “LOLRI Plants/m2” value (200 gai/ha, Vic Wheat H03 79-DAT) of the same compound?
A: Its value is 78 Plants/m2.

Q: And the “LOLRI Plants/m2” value (200 gai/ha, WA Canola W06-197 27-DAT)?
A: The value was 307 Plants/m2.

Q: And the “LOLRI Plants/m2” value (200 gai/ha, WA Lupins W06-200 19-DAT)?
A: Its value is 235 Plants/m2.

Q: And the “LOLRI Plants/m2” value (200 gai/ha, WA Wheat W06-196 27-DAT)?
A: Its value is 264 Plants/m2.

Q: And the “% control” value (200 gai/ha)?
A: The value was 64%.

Q: What about the “Mean Plants/m2” value (200 gai/ha) of the same compound?
A: The value was 138 Plants/m2.

Q: What about the “LOLRI Plants/m2” value (400 gai/ha, Vic Lentils 81-DAT) of the same compound?
A: Its value is 14 Plants/m2.

Q: And the “LOLRI Plants/m2” value (400 gai/ha, Vic Lentils H02 51-DAT)?
A: The value was 10 Plants/m2.

Q: What about the “LOLRI Plants/m2” value (400 gai/ha, Vic Wheat 49-DAT) of the same compound?
A: Its value is 22 Plants/m2.

Q: What about the “LOLRI Plants/m2” value (400 gai/ha, Vic Wheat H03 79-DAT) of the same compound?
A: Its value is 19 Plants/m2.

Q: What about the “LOLRI Plants/m2” value (400 gai/ha, WA Canola W06-197 27-DAT) of the same compound?
A: The value was 324 Plants/m2.

Q: And the “LOLRI Plants/m2” value (400 gai/ha, WA Lupins W06-200 19-DAT)?
A: Its value is 124 Plants/m2.

Q: And the “LOLRI Plants/m2” value (400 gai/ha, WA Wheat W06-196 27-DAT)?
A: Its value is 229 Plants/m2.

Q: What about the “% control” value (400 gai/ha) of the same compound?
A: The value was 73%.

Q: What about the “Mean Plants/m2” value (400 gai/ha) of the same compound?
A: Its value is 106 Plants/m2.
